# Results: patent US20100292266A1, “Oxazolyl Piperidine Modulators of Fatty Acid Amide Hydrolase” (priority 2006, published 2010)
# Legend:
# [1] = Kathuria 2003; cited from earlier work
# [2] = rats; Kathuria 2003; cited from earlier work
# [3] = cited from earlier work
# [4] = model of multiple sclerosis, Baker 2001; cited from earlier work
# FAAH [5] = target: T1, FAAH (Homo sapiens, UniProt O00519); conditions: WO 04/033652; cited from earlier work
# T1 sequence (O00519 1-579): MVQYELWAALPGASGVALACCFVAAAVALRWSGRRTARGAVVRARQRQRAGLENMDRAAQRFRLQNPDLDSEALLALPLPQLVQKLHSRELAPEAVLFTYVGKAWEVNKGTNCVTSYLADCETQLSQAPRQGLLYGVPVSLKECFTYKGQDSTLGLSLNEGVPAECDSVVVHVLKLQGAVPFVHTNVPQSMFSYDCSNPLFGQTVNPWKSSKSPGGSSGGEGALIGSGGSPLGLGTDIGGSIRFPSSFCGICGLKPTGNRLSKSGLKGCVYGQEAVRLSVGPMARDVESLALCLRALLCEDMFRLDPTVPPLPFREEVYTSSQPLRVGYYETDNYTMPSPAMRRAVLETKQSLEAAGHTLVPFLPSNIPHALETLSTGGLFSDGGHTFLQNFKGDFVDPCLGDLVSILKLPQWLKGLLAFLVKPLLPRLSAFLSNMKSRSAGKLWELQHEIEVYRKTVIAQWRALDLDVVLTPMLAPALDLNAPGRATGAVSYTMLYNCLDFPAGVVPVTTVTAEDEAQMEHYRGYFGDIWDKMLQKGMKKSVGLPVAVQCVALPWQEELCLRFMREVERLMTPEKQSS
# [6] = rats; WO 04/033652; cited from earlier work
# [7] = rats; WO 02/087569; cited from earlier work
# [8] = rats; WO 02/087569; cited from earlier work; remark: listed apart in the source
# FAAH [9] = target: T1, FAAH; experiment: Assay Method 1: FAAH assay, 3H-anandamide hydrolysis in cell homogenate; assay type: biochemical; parameters: expressed in transfected cells; conditions: T84 or transfected SK-N-MC cell homogenate, 80 nM 3H-AEA, 1 h rt, > = solubility limit or highest concentration tested
# How it was run: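 Homogenate of SK-N-MC cells stably transfected with human FAAH, incubated with compound and 80 nM final ³H-anandamide for 1 h at rt. Released ³H-ethanolamine separated from substrate on activated charcoal and counted by scintillation. ">" values reflect solubility limit or top concentration tested.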
# Rat FAAH = target: T2, Rat FAAH (Rattus norvegicus, UniProt P97612); experiment: Assay Method 2: FAAH assay, 3H-anandamide hydrolysis in cell homogenate; assay type: biochemical; conditions: transfected SK-N-MC cell homogenate, 80 nM 3H-AEA, 1 h rt, > = solubility limit or highest concentration tested
# T2 construct: expressed in transfected cells
# T2 sequence (P97612 1-579): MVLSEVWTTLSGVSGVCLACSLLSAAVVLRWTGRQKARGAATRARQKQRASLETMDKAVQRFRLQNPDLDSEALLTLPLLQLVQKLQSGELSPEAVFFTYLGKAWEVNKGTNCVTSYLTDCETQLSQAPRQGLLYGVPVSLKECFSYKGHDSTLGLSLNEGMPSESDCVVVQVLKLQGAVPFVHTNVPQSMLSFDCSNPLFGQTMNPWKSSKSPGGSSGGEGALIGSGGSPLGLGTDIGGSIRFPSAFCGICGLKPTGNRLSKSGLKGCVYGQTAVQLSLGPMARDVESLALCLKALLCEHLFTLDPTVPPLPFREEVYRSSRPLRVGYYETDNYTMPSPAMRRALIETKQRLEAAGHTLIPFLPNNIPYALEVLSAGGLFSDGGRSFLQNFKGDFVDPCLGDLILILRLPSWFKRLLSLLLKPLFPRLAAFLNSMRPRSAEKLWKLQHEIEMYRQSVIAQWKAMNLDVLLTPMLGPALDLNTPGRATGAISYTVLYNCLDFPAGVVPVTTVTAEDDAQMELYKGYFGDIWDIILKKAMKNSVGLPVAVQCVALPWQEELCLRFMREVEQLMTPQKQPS
# How it was run: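 Homogenate of SK-N-MC cells stably transfected with rat FAAH cDNA (G418-selected clones) incubated with compound and 80 nM final [3H]-anandamide for 1 h. Released [3H]-ethanolamine separated on activated charcoal filters by centrifugation and counted by scintillation. ">" values mark solubility limit or top concentration tested.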
IC50 (FAAH [9]),IC50 (Rat FAAH),Structure (SMILES),further results
–,–,NC(=O)c1cccc(-c2cccc(OC(=O)NC3CCCCC3)c2)c1 [URB-597],"analgesic efficacy in rat formalin test [1]: analgesic efficacy; efficacy in zero plus maze model of anxiety [2]: efficacy; analgesic efficacy in rat hot plate test ([3]; rat, Kathuria 2003): analgesic efficacy"
–,–,CCCCCCCCCCCCCCCCS(=O)(=O)F [AM374],spasticity in CREAE mice [4]: significantly reduce spasticity
–,–,O=C(CCCCCCc1ccccc1)c1ncc(-c2ccccn2)o1 [OL-135],"inhibition of FAAH (FAAH [5]): potent inhibitor of FAAH; analgesic activity in tail emersion test of thermal nociception [6]: analgesic activity; analgesic activity in hot plate test of thermal nociception ([3]; rats, WO 04/033652): analgesic activity"
–,–,Cc1nc(-c2ccccc2)c(-c2ccccc2)n1CCCCCCNC(=O)Oc1ccccc1F [BMS-1],analgesic effect in Chung spinal nerve ligation model of neuropathic pain [7]: analgesic effect; analgesic effect in Hargraves test of acute thermal nociception [8]: analgesic effect
0.012 µM,0.033 µM,"O=C(c1ncco1)C1CCN(Cc2ccc(Br)cc2)CC1 [Example 51, [1-(4-Bromo-benzyl)-piperidin-4-yl]-oxazol-2-yl-methanone]",–
0.148 µM,0.873 µM,"O=C(c1ncco1)C1CCN(Cc2ccc(F)cc2)CC1 [Example 30, [1-(4-Fluoro-benzyl)-piperidin-4-yl]-oxazol-2-yl-methanone]",–
> 10 µM,> 10 µM,"COc1ccccc1C(=O)N1CCC(C(=O)c2ncco2)CC1 [Example 8, [1-(2-Methoxy-benzoyl)-piperidin-4-yl]-oxazol-2-yl-methanone]",–
0.113 µM,0.582 µM,"O=C(c1ncco1)C1CCN(Cc2ccc3c(c2)OCO3)CC1 [Example 15, (1-Benzo[1,3]dioxol-5-ylmethyl-piperidin-4-yl)-oxazol-2-yl-methanone]",–
0.012 µM,0.105 µM,"O=C(c1ncco1)C1CCN(Cc2cc3ccccc3o2)CC1 [Example 55, (1-Benzofuran-2-ylmethyl-piperidin-4-yl)-oxazol-2-yl-methanone]",–
0.125 µM,0.65 µM,"O=C(c1ncco1)C1CCN(Cc2ccc(Cl)nc2)CC1 [Example 82, [1-(6-Chloro-pyridin-3-ylmethyl)-piperidin-4-yl]-oxazol-2-yl-methanone]",–
1.5 µM,> 10 µM,"O=C(c1ncco1)C1CCN(Cc2ccccc2F)CC1 [Example 32, [1-(2-Fluoro-benzyl)-piperidin-4-yl]-oxazol-2-yl-methanone]",–
1.3 µM,> 10 µM,"O=C(c1ncco1)C1CCN(Cc2ccccn2)CC1 [Example 60, Oxazol-2-yl-(1-pyridin-2-ylmethyl-piperidin-4-yl)-methanone]",–
0.013 µM,0.023 µM,"O=C(c1ncco1)C1CCN(Cc2ccc3ccccc3n2)CC1 [Example 84, Oxazol-2-yl-(1-quinolin-2-ylmethyl-piperidin-4-yl)-methanone]",–
0.003 µM,0.009 µM,"O=C(c1ncco1)C1CCN(Cc2ccc(Br)c([N+](=O)[O-])c2)CC1 [Example 26, [1-(4-Bromo-3-nitro-benzyl)-piperidin-4-yl]-oxazol-2-yl-methanone]",–
